Reference: patent US11214803B2, “Modulators of YAP1 expression” (Ionis Pharmaceuticals, Inc., priority 2019, dated 2022)
Strand notation (5' to 3'): a small letter for the sugar, then the base; units joined by * are phosphorothioate-linked, units joined directly phosphodiester-linked; [ ] holds rarer units or linkages, { } end groups; capitals alone tell only the bases. k = constrained ethyl (cEt); [5mC] = 5-methylcytosine; d = 2'-deoxy (DNA)

System: Yap1 mRNA
Assay: Antisense inhibition of human Yap1 in A-431 cells by cEt gapmers, single dose (Example 2, RTS4814)
Format: cell-based
Procedure, shortened: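 Free uptake, 2,000 nM, ~48 h, A-431 at 5,000 cells/well. Readout: RT-qPCR (RTS4814), RIBOGREEN-normalized, % UTC. 16-mer 3-10-3 cEt gapmers, full PS backbone, all C as 5-methylcytosine.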

[1] = Table 18, A-431 cells, 5,000 cells per well, free uptake, 2,000 nM modified oligonucleotide, approx. 48 hours, RTS4814, normalized to RIBOGREEN, Yap1 mRNA as percent of untreated control
[2] = Table 32, Yap1 mRNA, percent of untreated control, 3-10-3 cEt gapmers targeting SEQ ID NO.: 1, and 2
[3] = Table 23, Yap1 mRNA as percent of untreated control, 3-10-3 cEt gapmers, single dose
[4] = Table 22, Yap1 mRNA as percent of untreated control, 3-10-3 cEt gapmers, single dose
[5] = Table 21, Yap1 mRNA, percent of untreated control, 3-10-3 cEt gapmers targeting SEQ ID NO.: 1 and 2
[6] = Table 24, Yap1 mRNA as percent of untreated control, 3-10-3 cEt gapmers targeting SEQ ID NO.: 1, and 2
[7] = Yap1 mRNA as percent of untreated control, A-431 cells, 3-10-3 cEt gapmers targeting SEQ ID NO.: 1, and 2, Table 30
[8] = Yap1 mRNA as percent of untreated control, A-431 cells, 3-10-3 cEt gapmers targeting SEQ ID NO.: 1, and 2, Table 31
[9] = Table 20, Yap1 mRNA, percent of untreated control, 3-10-3 cEt gapmers targeting SEQ ID NO.: 1 and 2
[10] = Table 25, Yap1 mRNA as percent of untreated control, 3-10-3 cEt gapmers targeting SEQ ID NO.: 1, and 2
[11] = Table 33, Yap1 mRNA, percent of untreated control, 3-10-3 cEt gapmers targeting SEQ ID NO.: 1, and 2
[12] = Table 5, A-431 cells, 5,000 cells per well, free uptake, 2,000 nM modified oligonucleotide, approx. 48 hours, RTS4814, normalized to RIBOGREEN, Yap1 mRNA relative to untreated control cells
[13] = A-431 cells, 5,000 cells per well, free uptake, 2,000 nM modified oligonucleotide, approx. 48 hours, RTS4814, normalized to RIBOGREEN, Table 4, asterisk (*) = targets amplicon region of primer probe set
[14] = Table 19, A-431 cells, 5,000 cells per well, free uptake, 2,000 nM modified oligonucleotide, approx. 48 hours, RTS4814, normalized to RIBOGREEN, Yap1 mRNA as percent of untreated control

“1074372 (antisense k[5mC]*kT*kT*dT*dG*dG*dT*dT*dG*dA*dT*dA*dG*kT*kA*kT) [Compound 1074372]” was tested, and the “YAP1 (% UTC)” value [1] was 10 % UTC.
For “1075922 (antisense kG*k[5mC]*k[5mC]*d[5mC]*dA*dA*dA*dA*dT*dA*dG*dG*dA*kT*kA*k[5mC]) [compound 1075922]”, the “YAP1 (% UTC)” value [2] was 60 % UTC.
“1076233 (k[5mC]*k[5mC]*kA*dA*dT*dA*dA*dA*dG*d[5mC]*dA*dA*dG*kT*kA*kG; antisense) [Compound 1076233]” was tested, and the “YAP1 (% UTC)” value [3] was 13 % UTC.
“1074824 (k[5mC]*k[5mC]*kT*dG*dA*dG*d[5mC]*dA*d[5mC]*dT*d[5mC]*dA*dT*kT*kT*k[5mC]; antisense) [Compound 1074824]” was tested, and the “YAP1 (% UTC)” value [4] was 53 % UTC.
With “1074569 (antisense kT*kG*kA*dA*d[5mC]*d[5mC]*dT*dA*d[5mC]*dT*d[5mC]*dA*d[5mC]*kT*kG*kA) [Compound 1074569]” the “YAP1 (% UTC)” value [3] was 8 % UTC.
With “1076231 (kT*kT*kA*dG*dA*dA*dA*dT*dG*dG*dA*d[5mC]*dT*kG*kG*kG; antisense) [Compound 1076231]” the “YAP1 (% UTC)” value [5] was 16 % UTC.
For “1074634 (antisense kG*k[5mC]*kT*dG*dA*dG*dG*d[5mC]*dT*dT*dT*dT*d[5mC]*kA*kT*kA) [Compound 1074634]”, the “YAP1 (% UTC)” value [6] was 55 % UTC.
“1075248 (kG*kT*kA*d[5mC]*dA*dA*dA*dA*dA*dG*d[5mC]*dG*dG*kT*k[5mC]*kG; antisense) [compound 1075248]” was tested, and the “YAP1 (% UTC)” value [7] was 64 % UTC.
In the case of “1074257 (antisense kG*k[5mC]*kA*d[5mC]*dT*dG*dG*dT*dG*dG*dA*d[5mC]*dT*kG*kG*kT) [compound 1074257]”, the “YAP1 (% UTC)” value [8] is reported as 29 % UTC.
“1075270 (antisense k[5mC]*kT*kT*dT*dA*dT*dT*dA*dA*d[5mC]*d[5mC]*dT*dG*kG*kA*kG) [Compound 1075270]” was tested, and the “YAP1 (% UTC)” value [9] was 18 % UTC.
With “1075012 (antisense k[5mC]*kT*kA*dT*dT*dG*dG*dA*dA*dT*dG*dT*dT*kA*kA*k[5mC]) [Compound 1075012]” the “YAP1 (% UTC)” value [1] was 119 % UTC.
In the case of “1075016 (antisense kT*k[5mC]*kA*dG*dA*dA*dT*dA*dA*dG*dT*dA*dT*kG*kA*kT) [Compound 1075016]”, the “YAP1 (% UTC)” value [4] is reported as 100 % UTC.
In the case of “1075723 (kT*kT*kA*dT*d[5mC]*d[5mC]*dT*dA*dT*d[5mC]*d[5mC]*d[5mC]*dT*kG*kG*kT; antisense) [Compound 1075723]”, the “YAP1 (% UTC)” value [10] is reported as 32 % UTC.
In the case of “1075891 (antisense kA*kG*kA*dT*dT*dA*dA*dA*dA*dG*dT*dA*dG*kG*k[5mC]*k[5mC]) [compound 1075891]”, the “YAP1 (% UTC)” value [11] is reported as 89 % UTC.
With “1074643 (antisense kT*kT*kG*dA*dA*dG*dG*dG*d[5mC]*d[5mC]*dA*dA*dA*kA*kT*kA) [compound 1074643]” the “YAP1 (% UTC)” value [11] was 68 % UTC.
With “1074386 (k[5mC]*kA*kG*dG*dA*dA*dT*dG*dG*d[5mC]*dT*dT*d[5mC]*kA*kA*kG; antisense) [compound 1074386]” the “YAP1 (% UTC)” value [2] was 39 % UTC.
With “1076264 (kA*k[5mC]*k[5mC]*d[5mC]*dA*dA*dT*dA*dA*d[5mC]*d[5mC]*dA*dA*kG*kT*kG; antisense) [Compound 1076264]” the “YAP1 (% UTC)” value [4] was 40 % UTC.
“716353 (kG*k[5mC]*kA*dT*d[5mC]*d[5mC]*d[5mC]*d[5mC]*d[5mC]*dG*d[5mC]*d[5mC]*d[5mC]*k[5mC]*kG*kG; antisense) [Compound 716353]” was tested, and the “YAP1 (% UTC)” value [12] was 98 % UTC.
For “716430 (kT*kA*kA*d[5mC]*dT*dG*dG*dG*d[5mC]*dA*dA*dA*dA*kG*kG*kA; antisense) [Compound 716430]”, the “YAP1 (% UTC)” value [13] was 28 % UTC.
With “1075236 (antisense kT*kA*kT*dA*dA*dT*dA*d[5mC]*d[5mC]*dA*d[5mC]*dA*dA*kA*kG*kT) [Compound 1075236]” the “YAP1 (% UTC)” value [1] was 81 % UTC.
“716460 (kT*kA*kT*dT*d[5mC]*dT*dA*dA*dA*dT*dG*d[5mC]*dA*kT*kA*k[5mC]; antisense) [Compound 716460]” was tested, and the “YAP1 (% UTC)” value [13] was 86 % UTC.
In the case of “1074193 (antisense kG*kG*kT*d[5mC]*d[5mC]*dG*dG*dA*d[5mC]*dG*dG*d[5mC]*dG*kG*kG*k[5mC]) [compound 1074193]”, the “YAP1 (% UTC)” value [8] is reported as 74 % UTC.
In the case of “1074629 (antisense kG*kA*kG*dA*dT*dT*dT*dT*dA*dT*dG*d[5mC]*d[5mC]*kT*kG*kT) [Compound 1074629]”, the “YAP1 (% UTC)” value [14] is reported as 3 % UTC.
With “1074857 (antisense kA*k[5mC]*kA*dT*dT*dG*dG*dT*dA*d[5mC]*dT*dA*dT*kA*kT*kA) [Compound 1074857]” the “YAP1 (% UTC)” value [3] was 25 % UTC.
For “1075561 (kG*kT*kA*dA*dG*dT*dA*dA*dG*dG*dG*dA*dA*k[5mC]*k[5mC]*k[5mC]; antisense) [Compound 1075561]”, the “YAP1 (% UTC)” value [3] was 32 % UTC.
For “1076325 (k[5mC]*kT*kA*dA*dT*dA*dA*dT*dG*dG*dA*dA*dG*kA*kG*kT; antisense) [Compound 1076325]”, the “YAP1 (% UTC)” value [14] was 16 % UTC.
In the case of “1075346 (antisense kG*kT*kA*dA*dG*dT*dA*dA*dA*dA*d[5mC]*dT*dG*k[5mC]*kT*kG) [compound 1075346]”, the “YAP1 (% UTC)” value [2] is reported as 16 % UTC.
“1074539 (antisense k[5mC]*kT*kA*dT*d[5mC]*d[5mC]*dA*d[5mC]*dA*dG*dT*dA*dA*kT*kA*kG) [Compound 1074539]” was tested, and the “YAP1 (% UTC)” value [10] was 62 % UTC.
With “1075975 (kG*kG*kA*dA*dA*dA*dA*dA*dA*dT*dT*d[5mC]*d[5mC]*kG*k[5mC]*kA; antisense) [Compound 1075975]” the “YAP1 (% UTC)” value [5] was 84 % UTC.
With “1074280 (antisense kG*kG*kT*d[5mC]*dA*dA*dG*d[5mC]*d[5mC]*dT*dT*dG*dG*kG*kT*k[5mC]) [Compound 1074280]” the “YAP1 (% UTC)” value [4] was 43 % UTC.
In the case of “1076499 (kG*k[5mC]*kT*dA*dA*dT*dA*dT*dA*dT*d[5mC]*d[5mC]*dA*kA*kT*kT; antisense) [compound 1076499]”, the “YAP1 (% UTC)” value [11] is reported as 37 % UTC.
With “1074731 (antisense k[5mC]*kA*kG*dG*dT*dA*dT*d[5mC]*dA*d[5mC]*dA*dG*dT*kA*k[5mC]*kT) [Compound 1074731]” the “YAP1 (% UTC)” value [10] was 19 % UTC.
For “1076144 (kT*kT*kT*dT*dA*dT*dA*dG*dG*dG*d[5mC]*dA*dA*kT*kG*kG; antisense) [compound 1076144]”, the “YAP1 (% UTC)” value [7] was 7 % UTC.
For “1075312 (antisense kT*kT*kA*dA*dT*dT*dG*dA*dA*d[5mC]*dT*d[5mC]*dA*kG*kG*kG) [compound 1075312]”, the “YAP1 (% UTC)” value [7] was 37 % UTC.
In the case of “1074662 (antisense kG*kG*kT*dA*dG*dA*dA*dT*dT*dT*d[5mC]*dA*dT*kT*kA*k[5mC]) [Compound 1074662]”, the “YAP1 (% UTC)” value [9] is reported as 30 % UTC.
For “1074695 (antisense k[5mC]*k[5mC]*k[5mC]*d[5mC]*d[5mC]*dT*dA*dA*dA*dT*d[5mC]*dT*dT*k[5mC]*kA*k[5mC]) [Compound 1074695]”, the “YAP1 (% UTC)” value [5] was 49 % UTC.
With “1075827 (kA*kT*kA*d[5mC]*dT*dA*dT*dA*d[5mC]*d[5mC]*dT*dA*dA*kG*kG*kA; antisense) [compound 1075827]” the “YAP1 (% UTC)” value [11] was 60 % UTC.
“716452 (kT*kT*kA*d[5mC]*d[5mC]*dA*dA*dA*dA*d[5mC]*dA*dA*d[5mC]*kT*kA*k[5mC]; antisense) [Compound 716452]” was tested, and the “YAP1 (% UTC)” value [12] was 98 % UTC.
For “716365 (kT*k[5mC]*kT*dG*dA*dT*dG*d[5mC]*d[5mC]*d[5mC]*dG*dG*d[5mC]*kG*kG*kG; antisense) [Compound 716365]”, the “YAP1 (% UTC)” value [12] was 83 % UTC.
In the case of “1076134 (kG*kA*kT*dT*dA*dG*dA*dG*dT*dT*dG*dG*dG*k[5mC]*kA*kT; antisense) [Compound 1076134]”, the “YAP1 (% UTC)” value [9] is reported as 10 % UTC.
“1075239 (antisense kT*k[5mC]*kT*dT*dA*dA*dA*d[5mC]*dA*dG*dG*dT*dG*k[5mC]*k[5mC]*kA) [Compound 1075239]” was tested, and the “YAP1 (% UTC)” value [5] was 27 % UTC.
In the case of “1074443 (kT*k[5mC]*kA*dG*dA*d[5mC]*d[5mC]*dA*dG*dT*dA*dA*dA*kT*k[5mC]*kA; antisense) [Compound 1074443]”, the “YAP1 (% UTC)” value [10] is reported as 7 % UTC.
For “1074410 (antisense kT*kA*kG*dA*dG*dG*dA*dT*dT*dA*dA*dA*dG*kT*kA*kT) [Compound 1074410]”, the “YAP1 (% UTC)” value [6] was 32 % UTC.
With “716565 (kG*kG*kG*d[5mC]*dT*dA*dA*d[5mC]*dT*dA*d[5mC]*dA*dT*kT*kG*k[5mC]; antisense) [Compound 716565]” the “YAP1 (% UTC)” value [13] was 129 % UTC.
In the case of “1074952 (antisense kG*kT*kT*dT*dT*dT*dG*dT*d[5mC]*dA*dT*d[5mC]*dA*kG*kG*kT) [Compound 1074952]”, the “YAP1 (% UTC)” value [4] is reported as 42 % UTC.
In the case of “1074897 (antisense kG*kG*k[5mC]*dA*dA*dA*dG*dT*dT*d[5mC]*d[5mC]*dT*dA*kT*kG*k[5mC]) [compound 1074897]”, the “YAP1 (% UTC)” value [8] is reported as 76 % UTC.
